Measurements taken from patent US6838414B2, “Substituted aryl sulphonyl(thio)ureas used as herbicides” (Bayer Aktiengesellschaft, priority 1996, dated 2005).

What was measured:
Amaranthus = experiment: Pre-emergence test/greenhouse; type: in vivo; conditions: after three weeks
Method: (§1) To produce a suitable preparation of active compound, 1 part by weight of active compound is mixed with the stated amount of solvent, the stated amount of emulsifier is added and the concentrate is diluted with water to the desired concentration.
(§2) Seeds of the test plants are sown in normal soil. After about 24 hours, the soil is sprayed with the preparation of the active compound. Advantageously, the amount of water per unit area is kept constant. The active compound concentration in the preparation is not important, only the active compound application rate per unit area is critical.
(§3) After three weeks, the degree of damage to the plants is rated in % damage in comparison with the development of the untreated control.
(§4) The figures denote: • 0%=no effect (like untreated control) • 100%=total destruction

Lolium = experiment: Pre-emergence test/greenhouse; type: in vivo; conditions: after three weeks
Method: as §1, §2, §3, §4

Alopecurus [1] = experiment: Pre-emergence test/greenhouse; type: in vivo; conditions: after three weeks
Method: as §1, §2, §3, §4

Sorghum = experiment: Pre-emergence test/greenhouse; type: in vivo; conditions: after three weeks
Method: as §1, §2, §3, §4

Stellaria = experiment: Pre-emergence test/greenhouse; type: in vivo; conditions: after three weeks
Method: as §1, §2, §3, §4

Chenopodium = experiment: Pre-emergence test/greenhouse; type: in vivo; conditions: after three weeks
Method: as §1, §2, §3, §4

weeds [2] = experiment: Pre-emergence test (overall statement); type: in vivo; conditions: application rates between 30 g and 125 g of a.i. per hectare
Method: as §1, §2, §3, §4

weeds [3] = experiment: Post-emergence test/greenhouse; type: in vivo
Method: as §1
(§5) Test plants which have a height of 5-15 cm are sprayed with the preparation of the active compound in such a way as to apply the particular amounts of active compound desired per unit area. The concentration of the spray liquor is chosen so that the amounts of active compound desired in each case are applied in 1000 l of water/ha.
as §3, §4

Alopecurus [4] = experiment: Post-emergence test/greenhouse; type: in vivo; conditions: rated after three weeks vs untreated control
Method: as §1, §5, §3, §4

Echinochloa = experiment: Post-emergence test/greenhouse; type: in vivo; conditions: rated after three weeks vs untreated control
Method: as §1, §5, §3, §4

Abutilon = experiment: Post-emergence test/greenhouse; type: in vivo; conditions: rated after three weeks vs untreated control
Method: as §1, §5, §3, §4

Matricaria = experiment: Post-emergence test/greenhouse; type: in vivo; conditions: rated after three weeks vs untreated control
Method: as §1, §5, §3, §4

[5] = application rate 30 g of ai./ha
[6] = application rate 60 g of ai./ha

| SMILES | melting point | Amaranthus, % damage (Amaranthus; 60 g of ai./ha) | Lolium, % damage (Lolium; 60 g of ai./ha) | Alopecurus, % damage (Alopecurus [1]; 60 g of ai./ha) | Sorghum, % damage (Sorghum; 60 g of ai./ha) | Steltaria, % damage (Stellaria; 60 g of ai./ha) | Chenopodium, % damage (Chenopodium; 60 g of ai./ha) | activity against weeds (weeds [2]) | activity against weeds (weeds [3]) | degree of damage to the plants, Alopecurus (Alopecurus [4]; [6]) | degree of damage to the plants, Echinochloa (Echinochloa; [6]) | degree of damage to the plants, Abutilon (Abutilon; [6]) | degree of damage to the plants, Matricaria (Matricaria; [6]) | other results |
| --- | --- | --- | --- | --- | --- | --- | --- | --- | --- | --- | --- | --- | --- | --- |
| COc1cccc(C(F)(F)F)c1S(=O)(=O)NC(=O)Nc1nc(C)cc(C)n1 [Example 1, N-(4,6-dimethyl-pyrimidin-2-yl)-N′-(2-methoxy-6-trifluoromethyl-phenylsulphonyl)-urea] | 190 °C | 100% | 100% | 100% | 100% | 100% | 100% | very strong activity against weeds |  |  |  |  |  |  |
| COc1nc(NC(=O)NS(=O)(=O)c2c(C)cccc2OC)nc(OC)n1 [Example 2, N-(4,6-dimethoxy-1,3,5-triazin-2-yl)-N′-(2-methoxy-6-methyl-phenylsulphonyl)-urea] | 163 °C |  |  |  |  |  |  | very strong activity against weeds | very strong activity against weeds |  |  |  |  | degree of damage to the plants, Alopecurus (Alopecurus [4]; [5]): 90%; degree of damage to the plants, Echinochloa (Echinochloa; [5]): 90%; degree of damage to the plants, Abutilon (Abutilon; [5]): 95%; degree of damage to the plants, Matricaria (Matricaria; [5]): 100%; Amaranthus, % damage (Amaranthus; 30 g of ai./ha): 100%; Lolium, % damage (Lolium; 30 g of ai./ha): 100%; Alopecurus, % damage (Alopecurus [1]; 30 g of ai./ha): 100%; Sorghum, % damage (Sorghum; 30 g of ai./ha): 100%; Steltaria, % damage (Stellaria; 30 g of ai./ha): 100%; Chenopodium, % damage (Chenopodium; 30 g of ai./ha): 100% |
| CCOc1cccc(C)c1S(=O)(=O)NC(=O)Nc1nc(OC)cc(OC)n1 [Example 3, N-(4,6-dimethoxy-pyrimidin-2-yl)-N′-(2-ethoxy-6-methyl-phenylsulphonyl)-urea] | 184 °C | 80% | 60% | 95% | 80% | 95% | 95% | very strong activity against weeds | very strong activity against weeds | 90% | 80% | 100% | 95% |  |
| COc1nc(C)nc(NC(=O)NS(=O)(=O)c2c(C)cccc2OC(F)F)n1 [Example 66] |  | 95% | 95% | 95% | 95% | 95% | 95% | very strong activity against weeds | very strong activity against weeds | 80% | 80% | 100% | 100% |  |
